These compounds were tested on Chenopodiaceae (assay: Post-emergence test, weed control effect). Details: Dose 3000 g/ha, after 3 weeks.
Format: in vivo
Method in brief: (§1)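 Scores use a 0 (no effect) to 10 (dead) scale of fresh-weight inhibition, assessed 3 weeks after spraying. Treatment was at the 2-3 leaf stage, 2-3 weeks post-sowing, using acetone/Tween-80/water solutions with 80% vegetable oil methyl ester synergist at 1500 g/ha.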
In the case of `CCCCCCCCC(=S)Oc1cc(C(F)(F)F)nnc1-c1ccc(F)cc1` [Compound 1-154], the “weed control effect, Chenopodiaceae (activity level)” value (“weed control effect, Chenopodiaceae” below) is reported as 10. In the case of `Oc1cc(C(F)(F)F)nnc1-c1cnccc1Br` [Compound 968], the “weed control effect (activity level), Chenopodiaceae” value is reported as 10. With `Cn1nc(OCc2ccccc2)cc1-c1nnc(C(F)(F)F)cc1O` [Compound 784] the “weed control effect (activity level), Chenopodiaceae” value was 10. With `Cc1ccncc1-c1nnc(C(F)(F)F)cc1O` [Compound 975] the “weed control effect (activity level), Chenopodiaceae” value was 10. For `CN(C)c1cc(-c2nnc(C(F)(F)F)cc2O)n(C)n1` [Compound 787], the “weed control effect (activity level), Chenopodiaceae” value was 10. In the case of `CCOC(=O)Oc1cc(C(F)(F)F)nnc1-c1ccc(F)c(F)c1` [Compound 1-26], the “weed control effect, Chenopodiaceae” value is reported as 10. With `O=C(Oc1cc(C(F)(F)F)nnc1-c1ccc(F)cc1)C(F)(F)C(F)(F)C(F)(F)F` [Compound 1-25] the “weed control effect, Chenopodiaceae” value was 10. In the case of `Cc1ccc(S(=O)(=O)Oc2cc(C(F)(F)F)nnc2-c2ccc(F)cc2)cc1` [Compound 1-132], the “weed control effect, Chenopodiaceae” value is reported as 10. With `Oc1cc(C(F)(F)F)nnc1-c1cnc(F)cc1Cl` [Compound 1001] the “weed control effect (activity level), Chenopodiaceae” value was 10. In the case of `CCCCC(CC)OC(=O)Oc1cc(C(F)(F)F)nnc1-c1ccc(Br)c([N+](=O)[O-])c1` (stereo not drawn) [Compound 1-36], the “weed control effect, Chenopodiaceae” value is reported as 10. `Oc1cc(C(F)(F)F)nnc1-c1cccnc1Br` [Compound 965] was tested, and the “weed control effect (activity level), Chenopodiaceae” value was 10. With `CCON(C)C(=O)Oc1cc(C(F)(F)F)nnc1-c1ccc(F)cc1` [Compound 1-63] the “weed control effect, Chenopodiaceae” value was 10.

Same assay, conditions: dose 1000 g/ha, after 3 weeks
With `Cc1ccc(F)c(-c2nnc(C(F)(F)F)cc2O)c1` [Compound 57] the “weed control effect (activity level), Chenopodiaceae” value was 10.

Same assay, conditions: dose 2000 g/ha, after 3 weeks
In the case of `CCc1cc(-c2nnc(C(F)(F)F)cc2O)c(F)cc1[N+](=O)[O-]` [Compound 179], the “weed control effect (activity level), Chenopodiaceae” value is reported as 10. For `Oc1cc(C(F)(F)F)nnc1-c1cnccc1Cl` [Compound 204], the “weed control effect (activity level), Chenopodiaceae” value was 10.

What follows are compounds tested on Amaranthus retroflexus (assay: Post-emergence test, weed control effect). Details: Dose 3000 g/ha, after 3 weeks.
Format: in vivo
Method in brief: as §1
With `CCCCCCCCC(=S)Oc1cc(C(F)(F)F)nnc1-c1ccc(F)cc1` [Compound 1-154] the “weed control effect, Amaranthus retroflexus (activity level)” value was 10. For `Oc1cc(C(F)(F)F)nnc1-c1cnccc1Br` [Compound 968], the “weed control effect (activity level), Amaranthus retroflexus” value was 10. In the case of `Cn1nc(OCc2ccccc2)cc1-c1nnc(C(F)(F)F)cc1O` [Compound 784], the “weed control effect (activity level), Amaranthus retroflexus” value is reported as 10. With `Cc1ccncc1-c1nnc(C(F)(F)F)cc1O` [Compound 975] the “weed control effect (activity level), Amaranthus retroflexus” value was 10. In the case of `CN(C)c1cc(-c2nnc(C(F)(F)F)cc2O)n(C)n1` [Compound 787], the “weed control effect (activity level), Amaranthus retroflexus” value is reported as 10. In the case of `CCOC(=O)Oc1cc(C(F)(F)F)nnc1-c1ccc(F)c(F)c1` [Compound 1-26], the “weed control effect, Amaranthus retroflexus (activity level)” value is reported as 10. In the case of `O=C(Oc1cc(C(F)(F)F)nnc1-c1ccc(F)cc1)C(F)(F)C(F)(F)C(F)(F)F` [Compound 1-25], the “weed control effect, Amaranthus retroflexus (activity level)” value is reported as 10. `Cc1ccc(S(=O)(=O)Oc2cc(C(F)(F)F)nnc2-c2ccc(F)cc2)cc1` [Compound 1-132] was tested, and the “weed control effect, Amaranthus retroflexus (activity level)” value was 10. For `Oc1cc(C(F)(F)F)nnc1-c1cnc(F)cc1Cl` [Compound 1001], the “weed control effect (activity level), Amaranthus retroflexus” value was 10. For `CCCCC(CC)OC(=O)Oc1cc(C(F)(F)F)nnc1-c1ccc(Br)c([N+](=O)[O-])c1` (stereo not drawn) [Compound 1-36], the “weed control effect, Amaranthus retroflexus (activity level)” value was 10. For `Oc1cc(C(F)(F)F)nnc1-c1cccnc1Br` [Compound 965], the “weed control effect (activity level), Amaranthus retroflexus” value was 10. `CCON(C)C(=O)Oc1cc(C(F)(F)F)nnc1-c1ccc(F)cc1` [Compound 1-63] was tested, and the “weed control effect, Amaranthus retroflexus (activity level)” value was 10.

Same assay, conditions: dose 1000 g/ha, after 3 weeks
With `Cc1ccc(F)c(-c2nnc(C(F)(F)F)cc2O)c1` [Compound 57] the “weed control effect (activity level), Amaranthus retroflexus” value was 10.

Same assay, conditions: dose 2000 g/ha, after 3 weeks
With `CCc1cc(-c2nnc(C(F)(F)F)cc2O)c(F)cc1[N+](=O)[O-]` [Compound 179] the “weed control effect (activity level), Amaranthus retroflexus” value was 10. `Oc1cc(C(F)(F)F)nnc1-c1cnccc1Cl` [Compound 204] was tested, and the “weed control effect (activity level), Amaranthus retroflexus” value was 10.

What follows are compounds tested on Rorippa indica (assay: Post-emergence test, weed control effect). Details: Dose 3000 g/ha, after 3 weeks.
Format: in vivo
Method in brief: as §1
For `CCCCCCCCC(=S)Oc1cc(C(F)(F)F)nnc1-c1ccc(F)cc1` [Compound 1-154], the “weed control effect, Rorippa indica (activity level)” value (shortened to “weed control effect, Rorippa indica”) was 10. For `Oc1cc(C(F)(F)F)nnc1-c1cnccc1Br` [Compound 968], the “weed control effect (activity level), Rorippa indica” value was 10. For `Cn1nc(OCc2ccccc2)cc1-c1nnc(C(F)(F)F)cc1O` [Compound 784], the “weed control effect (activity level), Rorippa indica” value was 10. In the case of `Cc1ccncc1-c1nnc(C(F)(F)F)cc1O` [Compound 975], the “weed control effect (activity level), Rorippa indica” value is reported as 10. In the case of `CN(C)c1cc(-c2nnc(C(F)(F)F)cc2O)n(C)n1` [Compound 787], the “weed control effect (activity level), Rorippa indica” value is reported as 10. In the case of `CCOC(=O)Oc1cc(C(F)(F)F)nnc1-c1ccc(F)c(F)c1` [Compound 1-26], the “weed control effect, Rorippa indica” value is reported as 10. With `O=C(Oc1cc(C(F)(F)F)nnc1-c1ccc(F)cc1)C(F)(F)C(F)(F)C(F)(F)F` [Compound 1-25] the “weed control effect, Rorippa indica” value was 10. `Cc1ccc(S(=O)(=O)Oc2cc(C(F)(F)F)nnc2-c2ccc(F)cc2)cc1` [Compound 1-132] was tested, and the “weed control effect, Rorippa indica” value was 10. In the case of `Oc1cc(C(F)(F)F)nnc1-c1cnc(F)cc1Cl` [Compound 1001], the “weed control effect (activity level), Rorippa indica” value is reported as 10. `CCCCC(CC)OC(=O)Oc1cc(C(F)(F)F)nnc1-c1ccc(Br)c([N+](=O)[O-])c1` (stereo not drawn) [Compound 1-36] was tested, and the “weed control effect, Rorippa indica” value was 10. In the case of `Oc1cc(C(F)(F)F)nnc1-c1cccnc1Br` [Compound 965], the “weed control effect (activity level), Rorippa indica” value is reported as 10. With `CCON(C)C(=O)Oc1cc(C(F)(F)F)nnc1-c1ccc(F)cc1` [Compound 1-63] the “weed control effect, Rorippa indica” value was 10.

Same assay, conditions: dose 1000 g/ha, after 3 weeks
In the case of `Cc1ccc(F)c(-c2nnc(C(F)(F)F)cc2O)c1` [Compound 57], the “weed control effect (activity level), Rorippa indica” value is reported as 10.

Same assay, conditions: dose 2000 g/ha, after 3 weeks
`CCc1cc(-c2nnc(C(F)(F)F)cc2O)c(F)cc1[N+](=O)[O-]` [Compound 179] was tested, and the “weed control effect (activity level), Rorippa indica” value was 10. In the case of `Oc1cc(C(F)(F)F)nnc1-c1cnccc1Cl` [Compound 204], the “weed control effect (activity level), Rorippa indica” value is reported as 10.

Each compound was assayed on Veronica polita (assay: Post-emergence test, weed control effect). Details: Dose 3000 g/ha, after 3 weeks.
Format: in vivo
Method in brief: as §1
With `CCCCCCCCC(=S)Oc1cc(C(F)(F)F)nnc1-c1ccc(F)cc1` [Compound 1-154] the “weed control effect, Veronica polita (activity level)” value (“weed control effect, Veronica polita” for short) was 10. In the case of `Oc1cc(C(F)(F)F)nnc1-c1cnccc1Br` [Compound 968], the “weed control effect (activity level), Veronica polita” value is reported as 10. With `Cn1nc(OCc2ccccc2)cc1-c1nnc(C(F)(F)F)cc1O` [Compound 784] the “weed control effect (activity level), Veronica polita” value was 10. With `Cc1ccncc1-c1nnc(C(F)(F)F)cc1O` [Compound 975] the “weed control effect (activity level), Veronica polita” value was 10. In the case of `CN(C)c1cc(-c2nnc(C(F)(F)F)cc2O)n(C)n1` [Compound 787], the “weed control effect (activity level), Veronica polita” value is reported as 10. With `CCOC(=O)Oc1cc(C(F)(F)F)nnc1-c1ccc(F)c(F)c1` [Compound 1-26] the “weed control effect, Veronica polita” value was 10. For `O=C(Oc1cc(C(F)(F)F)nnc1-c1ccc(F)cc1)C(F)(F)C(F)(F)C(F)(F)F` [Compound 1-25], the “weed control effect, Veronica polita” value was 10. For `Cc1ccc(S(=O)(=O)Oc2cc(C(F)(F)F)nnc2-c2ccc(F)cc2)cc1` [Compound 1-132], the “weed control effect, Veronica polita” value was 10. In the case of `Oc1cc(C(F)(F)F)nnc1-c1cnc(F)cc1Cl` [Compound 1001], the “weed control effect (activity level), Veronica polita” value is reported as 10. For `CCCCC(CC)OC(=O)Oc1cc(C(F)(F)F)nnc1-c1ccc(Br)c([N+](=O)[O-])c1` (stereo not drawn) [Compound 1-36], the “weed control effect, Veronica polita” value was 10. With `Oc1cc(C(F)(F)F)nnc1-c1cccnc1Br` [Compound 965] the “weed control effect (activity level), Veronica polita” value was 10. In the case of `CCON(C)C(=O)Oc1cc(C(F)(F)F)nnc1-c1ccc(F)cc1` [Compound 1-63], the “weed control effect, Veronica polita” value is reported as 10.

Same assay, conditions: dose 1000 g/ha, after 3 weeks
`Cc1ccc(F)c(-c2nnc(C(F)(F)F)cc2O)c1` [Compound 57] was tested, and the “weed control effect (activity level), Veronica polita” value was 10.

Same assay, conditions: dose 2000 g/ha, after 3 weeks
For `CCc1cc(-c2nnc(C(F)(F)F)cc2O)c(F)cc1[N+](=O)[O-]` [Compound 179], the “weed control effect (activity level), Veronica polita” value was 10. `Oc1cc(C(F)(F)F)nnc1-c1cnccc1Cl` [Compound 204] was tested, and the “weed control effect (activity level), Veronica polita” value was 10.
